# Literature values, collected in US20050065130A1, “Pharmaceutical compositions and methods comprising combinations of 2-alkylidene-19-nor-vitamin D derivatives and a cyclooxgenase-2 inhibitor” (Pfizer Inc., priority 2003, published 2005).
smiles,measurement,setting,value
"C=C1/C(=C\C=C2/CCC[C@]3(C)[C@@H]([C@H](C)CCCC(C)(C)O)CC[C@@H]23)C[C@@H](O)C[C@@H]1O [1,25-(OH)2D3, 1,25-dihydroxyvitamin D3, reference compound]",serum calcium value,"as printed: twice the dose, at the 130 pmol dose",13.8 mg/100 ml
"C=C1[C@H](O)CC(=C/C=C2\CCC[C@]3(C)[C@@H]([C@H](C)CCCC(C)(C)O)CC[C@@H]23)C[C@H]1O [2-Methylene-19-Nor-1,25-(OH)2D3, 1α,25-dihydroxy-2-methylene-19-nor-vitamin D3]",bone calcium mobilization (in words),"chronic mode 7 days, both dose levels (130 and 260 pmol/day)",extremely strong
same,"activity on bone calcium mobilization (serum calcium), times that of the native hormone 1,25-(OH)2D3","relative to 1,25-(OH)2D3, chronic mode 7 days",10-100 times
